# Measurements as given in ChEMBL document CHEMBL3991601, “The target landscape of clinical kinase drugs” (Science, 2017).
# Calls of active or inactive are those of the source. Unless noted, the rule behind the calls is not given here.
# Tests used:
# [1] = target: Mast/stem cell growth factor receptor Kit (Homo sapiens, UniProt P10721)
# [2] = target: ALK tyrosine kinase receptor (Homo sapiens, UniProt Q9UM73); type: subcellular, K-562, COLO 205, SK-N-BE(2) and MV-4-11, Cell lysate; details: read-out: Kd apparent
# Chain of ALK tyrosine kinase receptor (Q9UM73 whole entry): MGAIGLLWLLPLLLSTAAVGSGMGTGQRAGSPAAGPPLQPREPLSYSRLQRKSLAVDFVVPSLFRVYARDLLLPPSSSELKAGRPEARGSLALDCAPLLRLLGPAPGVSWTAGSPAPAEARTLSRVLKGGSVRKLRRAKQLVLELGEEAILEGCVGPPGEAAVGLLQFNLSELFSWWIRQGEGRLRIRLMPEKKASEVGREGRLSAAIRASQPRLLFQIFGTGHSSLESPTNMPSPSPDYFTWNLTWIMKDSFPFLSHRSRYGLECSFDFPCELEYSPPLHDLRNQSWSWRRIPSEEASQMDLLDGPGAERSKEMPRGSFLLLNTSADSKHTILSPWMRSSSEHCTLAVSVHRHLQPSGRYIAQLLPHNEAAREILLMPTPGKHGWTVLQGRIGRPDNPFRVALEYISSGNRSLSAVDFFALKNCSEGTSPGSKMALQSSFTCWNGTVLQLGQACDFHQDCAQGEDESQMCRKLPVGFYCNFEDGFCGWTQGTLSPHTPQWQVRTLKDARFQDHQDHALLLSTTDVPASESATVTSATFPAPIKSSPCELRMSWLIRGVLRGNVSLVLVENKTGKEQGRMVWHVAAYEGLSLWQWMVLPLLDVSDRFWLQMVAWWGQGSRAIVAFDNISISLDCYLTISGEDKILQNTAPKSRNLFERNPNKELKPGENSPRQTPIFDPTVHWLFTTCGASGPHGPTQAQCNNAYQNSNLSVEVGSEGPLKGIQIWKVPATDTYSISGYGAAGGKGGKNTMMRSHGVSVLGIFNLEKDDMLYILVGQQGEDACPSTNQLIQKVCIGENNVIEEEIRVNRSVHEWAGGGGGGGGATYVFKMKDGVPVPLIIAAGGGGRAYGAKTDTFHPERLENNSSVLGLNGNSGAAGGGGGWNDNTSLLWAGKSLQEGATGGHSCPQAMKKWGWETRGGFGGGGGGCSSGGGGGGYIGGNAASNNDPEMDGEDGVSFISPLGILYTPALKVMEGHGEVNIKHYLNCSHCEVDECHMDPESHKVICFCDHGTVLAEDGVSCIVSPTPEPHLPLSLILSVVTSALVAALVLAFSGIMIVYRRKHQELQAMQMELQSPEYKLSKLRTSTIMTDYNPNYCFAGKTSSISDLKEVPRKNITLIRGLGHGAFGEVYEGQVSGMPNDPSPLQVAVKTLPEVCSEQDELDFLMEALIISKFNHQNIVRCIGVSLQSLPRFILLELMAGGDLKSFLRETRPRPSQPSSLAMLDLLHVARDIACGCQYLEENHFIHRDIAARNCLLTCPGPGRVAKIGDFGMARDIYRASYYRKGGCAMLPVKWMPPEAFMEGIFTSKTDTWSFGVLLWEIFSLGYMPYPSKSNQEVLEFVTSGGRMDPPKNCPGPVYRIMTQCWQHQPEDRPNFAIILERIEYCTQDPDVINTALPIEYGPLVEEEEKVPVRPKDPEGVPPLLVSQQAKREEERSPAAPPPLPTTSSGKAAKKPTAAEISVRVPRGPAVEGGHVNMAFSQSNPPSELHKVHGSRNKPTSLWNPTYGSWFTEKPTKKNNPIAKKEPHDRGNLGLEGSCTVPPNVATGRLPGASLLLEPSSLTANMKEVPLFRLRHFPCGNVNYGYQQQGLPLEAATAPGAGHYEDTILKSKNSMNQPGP
# [3] = target: T1, Tyrosine-protein kinase Mer (Homo sapiens, UniProt Q12866)
# T1 sequence (Q12866 whole entry): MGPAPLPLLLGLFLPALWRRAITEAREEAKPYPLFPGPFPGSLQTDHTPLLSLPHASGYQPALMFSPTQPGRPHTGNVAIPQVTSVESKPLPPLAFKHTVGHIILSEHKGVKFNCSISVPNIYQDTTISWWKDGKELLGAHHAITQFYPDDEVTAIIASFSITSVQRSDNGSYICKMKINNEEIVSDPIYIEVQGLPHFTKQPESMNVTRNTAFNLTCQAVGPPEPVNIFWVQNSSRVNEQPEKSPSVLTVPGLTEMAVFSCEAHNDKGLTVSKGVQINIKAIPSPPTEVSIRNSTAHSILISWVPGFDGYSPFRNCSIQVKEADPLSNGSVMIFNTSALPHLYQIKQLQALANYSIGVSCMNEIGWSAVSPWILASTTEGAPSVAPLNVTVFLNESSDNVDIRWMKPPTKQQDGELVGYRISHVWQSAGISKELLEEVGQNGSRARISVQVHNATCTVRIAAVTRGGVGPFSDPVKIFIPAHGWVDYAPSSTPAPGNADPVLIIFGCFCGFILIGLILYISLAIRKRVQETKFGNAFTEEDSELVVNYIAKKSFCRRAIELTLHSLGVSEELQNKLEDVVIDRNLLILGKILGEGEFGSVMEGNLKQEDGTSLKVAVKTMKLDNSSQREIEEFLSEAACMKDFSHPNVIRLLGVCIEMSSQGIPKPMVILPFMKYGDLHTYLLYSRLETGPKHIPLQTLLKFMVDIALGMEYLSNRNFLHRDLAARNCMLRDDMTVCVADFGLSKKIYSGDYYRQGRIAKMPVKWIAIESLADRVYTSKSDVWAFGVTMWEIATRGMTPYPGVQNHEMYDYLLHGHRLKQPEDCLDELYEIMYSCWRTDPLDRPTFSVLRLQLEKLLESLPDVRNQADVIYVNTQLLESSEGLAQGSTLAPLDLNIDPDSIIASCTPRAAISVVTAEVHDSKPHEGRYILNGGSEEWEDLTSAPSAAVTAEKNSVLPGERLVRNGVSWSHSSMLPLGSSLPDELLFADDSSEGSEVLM
# [4] = target: Cyclin-dependent kinase 9 (Homo sapiens, UniProt P50750)
# Chain of Cyclin-dependent kinase 9 (P50750 whole entry): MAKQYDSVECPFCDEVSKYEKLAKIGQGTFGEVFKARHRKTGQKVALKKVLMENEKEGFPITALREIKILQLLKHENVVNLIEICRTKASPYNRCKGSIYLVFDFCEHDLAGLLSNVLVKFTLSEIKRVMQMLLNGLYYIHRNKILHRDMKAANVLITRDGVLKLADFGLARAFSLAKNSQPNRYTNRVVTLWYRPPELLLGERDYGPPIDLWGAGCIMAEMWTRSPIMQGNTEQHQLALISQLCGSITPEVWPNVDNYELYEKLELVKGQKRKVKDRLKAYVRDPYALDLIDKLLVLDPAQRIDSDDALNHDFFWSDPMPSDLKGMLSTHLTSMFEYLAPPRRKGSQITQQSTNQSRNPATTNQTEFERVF
# Actin-related protein 3 = Actin-related protein 3 (Homo sapiens, UniProt P61158)
# [5] = target: Tyrosine-protein kinase JAK2 (Homo sapiens, UniProt O60674)
# Chain of Tyrosine-protein kinase JAK2 (O60674 whole entry): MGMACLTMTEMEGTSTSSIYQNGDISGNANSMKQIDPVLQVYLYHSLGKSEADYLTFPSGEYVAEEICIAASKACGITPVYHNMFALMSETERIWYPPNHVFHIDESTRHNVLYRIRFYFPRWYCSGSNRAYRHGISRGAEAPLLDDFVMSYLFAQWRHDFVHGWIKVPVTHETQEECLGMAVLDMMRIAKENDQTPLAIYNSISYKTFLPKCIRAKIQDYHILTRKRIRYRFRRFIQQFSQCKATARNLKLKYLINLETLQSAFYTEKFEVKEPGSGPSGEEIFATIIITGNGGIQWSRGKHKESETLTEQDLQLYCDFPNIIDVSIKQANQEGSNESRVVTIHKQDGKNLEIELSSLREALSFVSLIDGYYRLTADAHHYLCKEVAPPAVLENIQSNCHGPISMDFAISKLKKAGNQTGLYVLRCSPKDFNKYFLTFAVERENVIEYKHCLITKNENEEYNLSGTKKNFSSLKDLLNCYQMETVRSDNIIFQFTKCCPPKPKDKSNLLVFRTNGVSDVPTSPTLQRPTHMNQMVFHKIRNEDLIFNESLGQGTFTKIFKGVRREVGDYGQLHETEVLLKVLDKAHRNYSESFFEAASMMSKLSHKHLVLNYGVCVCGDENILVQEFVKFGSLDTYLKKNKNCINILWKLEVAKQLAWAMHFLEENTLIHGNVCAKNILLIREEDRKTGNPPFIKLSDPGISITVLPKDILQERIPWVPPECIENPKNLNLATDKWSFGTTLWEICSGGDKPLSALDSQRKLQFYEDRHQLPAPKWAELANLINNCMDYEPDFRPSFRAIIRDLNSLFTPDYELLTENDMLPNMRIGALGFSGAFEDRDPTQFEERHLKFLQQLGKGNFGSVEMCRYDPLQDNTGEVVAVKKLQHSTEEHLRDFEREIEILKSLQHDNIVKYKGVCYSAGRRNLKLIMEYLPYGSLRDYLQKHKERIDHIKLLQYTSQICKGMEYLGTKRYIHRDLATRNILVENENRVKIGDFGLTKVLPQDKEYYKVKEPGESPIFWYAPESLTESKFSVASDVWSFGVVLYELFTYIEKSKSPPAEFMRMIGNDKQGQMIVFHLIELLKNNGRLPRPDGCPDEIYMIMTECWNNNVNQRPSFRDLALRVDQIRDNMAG
# Chain of Mast/stem cell growth factor receptor Kit (P10721 whole entry): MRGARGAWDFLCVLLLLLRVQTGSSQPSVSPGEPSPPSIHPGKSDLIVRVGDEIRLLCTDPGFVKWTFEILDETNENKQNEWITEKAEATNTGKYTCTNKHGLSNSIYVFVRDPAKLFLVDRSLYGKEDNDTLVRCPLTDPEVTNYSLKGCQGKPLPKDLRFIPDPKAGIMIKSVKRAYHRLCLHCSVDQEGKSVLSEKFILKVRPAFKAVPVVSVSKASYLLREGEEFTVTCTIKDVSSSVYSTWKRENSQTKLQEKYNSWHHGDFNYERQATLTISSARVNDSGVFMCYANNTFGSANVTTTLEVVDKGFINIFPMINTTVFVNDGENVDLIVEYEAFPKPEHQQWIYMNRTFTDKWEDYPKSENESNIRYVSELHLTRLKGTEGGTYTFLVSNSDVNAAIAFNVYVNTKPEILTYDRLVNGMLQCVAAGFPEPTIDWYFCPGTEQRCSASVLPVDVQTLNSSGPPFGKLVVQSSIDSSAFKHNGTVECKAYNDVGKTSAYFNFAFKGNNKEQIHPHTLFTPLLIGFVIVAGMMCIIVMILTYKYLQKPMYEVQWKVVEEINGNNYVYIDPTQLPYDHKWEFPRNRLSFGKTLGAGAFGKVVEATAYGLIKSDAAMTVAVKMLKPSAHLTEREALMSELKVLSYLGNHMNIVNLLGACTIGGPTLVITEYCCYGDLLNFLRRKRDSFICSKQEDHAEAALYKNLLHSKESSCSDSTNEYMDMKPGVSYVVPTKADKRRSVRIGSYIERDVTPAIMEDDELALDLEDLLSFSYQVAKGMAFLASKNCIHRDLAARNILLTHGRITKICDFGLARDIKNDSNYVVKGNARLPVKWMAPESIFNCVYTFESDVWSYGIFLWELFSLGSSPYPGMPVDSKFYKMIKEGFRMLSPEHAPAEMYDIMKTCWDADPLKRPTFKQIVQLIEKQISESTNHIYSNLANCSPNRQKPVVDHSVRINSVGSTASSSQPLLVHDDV
Kd [1],Kd [2],SMILES,other results
> 30 µM (inactive),> 30 µM (inactive),CCN1CCN(Cc2ccc(-c3cc4c(N[C@H](C)c5ccccc5)ncnc4[nH]3)cc2)CC1 [AEE-788],Kd [3]: > 30 µM (inactive)
–,–,CO[C@H]1C[C@@H]2CC[C@@H](C)[C@@](O)(O2)C(=O)C(=O)N2CCCC[C@H]2C(=O)O[C@H]([C@H](C)C[C@@H]2CC[C@@H](OCCO)[C@H](OC)C2)CC(=O)[C@H](C)/C=C(\C)[C@@H](O)[C@@H](OC)C(=O)[C@H](C)C[C@H](C)/C=C/C=C/C=C/1C [EVEROLIMUS],Kd [4]: > 30 µM (inactive)
–,–,CN1CCC(COc2cnc(-c3cccc(Cn4nc(-c5cccc(C#N)c5)ccc4=O)c3)nc2)CC1 [TEPOTINIB],Kd (Actin-related protein 3): > 30 µM (inactive)
> 30 µM (inactive),> 30 µM (inactive),O=C1NC(=O)/C(=C/c2ccc3nccc(-c4ccncc4)c3c2)S1 [GSK-1059615],Kd [5]: > 30 µM (inactive)
